Assay results taken from ChEMBL document CHEMBL4680246, “Design, synthesis and biological evaluation of novel O-carbamoyl ferulamide derivatives as multi-target-directed ligands for the treatment of Alzheimer's disease” (Eur J Med Chem, 2020).
The source made the active and inactive calls. The rule behind the calls is not given here.

Experiments:
HT-22 = test: Cytotoxicity against mouse HT22 cells assessed as effect on cell viability at 10 uM by MTT assay; assay type: cell-based; details: ht-22, 10 µM
[1] = Effect on tau protein level in mouse HT22 cells transfected with pRK5-GFP-Tau plasmid assessed as fluorescence intensity at 5 uM by fluorescence microscopy (Rvb <= 40.9); assay type: functional, HT-22
[2] = biological target: Amyloid-beta precursor protein (Homo sapiens) (UniProt P05067); test: Disaggregation of self-induced amyloid beta (1 to 42) (unknown origin) preformed fibrils at 25 uM measured after 24 hrs by transmission electron microscopic analysis
Sequence of Amyloid-beta precursor protein (Homo sapiens) (P05067 whole entry): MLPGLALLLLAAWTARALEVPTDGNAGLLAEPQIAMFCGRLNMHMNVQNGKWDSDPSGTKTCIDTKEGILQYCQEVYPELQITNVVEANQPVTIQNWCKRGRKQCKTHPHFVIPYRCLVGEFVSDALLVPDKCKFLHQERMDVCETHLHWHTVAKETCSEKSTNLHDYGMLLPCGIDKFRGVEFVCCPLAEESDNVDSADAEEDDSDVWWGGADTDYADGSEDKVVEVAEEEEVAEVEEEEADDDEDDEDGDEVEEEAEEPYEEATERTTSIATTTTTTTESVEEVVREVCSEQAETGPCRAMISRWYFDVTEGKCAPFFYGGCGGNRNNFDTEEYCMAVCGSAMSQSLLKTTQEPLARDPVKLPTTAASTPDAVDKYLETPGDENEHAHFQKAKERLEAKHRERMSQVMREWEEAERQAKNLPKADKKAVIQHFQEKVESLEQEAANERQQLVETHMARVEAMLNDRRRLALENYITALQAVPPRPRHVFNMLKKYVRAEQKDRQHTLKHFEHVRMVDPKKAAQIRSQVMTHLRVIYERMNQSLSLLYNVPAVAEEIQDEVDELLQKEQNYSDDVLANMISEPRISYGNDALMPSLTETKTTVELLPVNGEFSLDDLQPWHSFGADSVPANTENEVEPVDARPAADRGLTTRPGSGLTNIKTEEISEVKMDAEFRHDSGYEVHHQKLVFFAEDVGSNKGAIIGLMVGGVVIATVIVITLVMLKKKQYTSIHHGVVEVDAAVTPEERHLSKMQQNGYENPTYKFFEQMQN

[3] = Cytotoxicity against mouse HT22 cells assessed as cell viability at 80 uM by MTT assay relative to control; assay type: cell-based, HT-22; details: read-out: Activity
[4] = Effect on tau protein level in mouse HT22 cells transfected with pRK5-GFP-Tau P301L plasmid assessed as fluorescence intensity at 10 uM by fluorescence microscopy (reference value: 33.6); assay type: functional, HT-22

CCN(C)C(=O)Oc1ccc(/C=C/C(=O)N2CCc3ccccc3C2)cc1OC
Activity (HT-22): Non-Toxic
Flu intensity [1]: 32.6
Activity [2]: Active
viability at 80 µM [3]: 8.4%
Flu intensity [4]: 18.7
